This is an account of results in patent US4414226A, “1,4-Naphtoquinone derivatives and their use in treating coccidiosis” (Fujisawa Pharmaceutical Co., Ltd., priority 1980, dated 1983).

One series concerns Eimeria tenella. The experiment in a line: coccidium infection and treatment test in the chicken (Test example 1, Table 1). The class given is in vivo, Eimeria tenella; male white Leghorn chickens. Further details: Lesion score: scale not given here. The following applies: for Lesion score: 3 times a day for 3 days, cecal lesions; for Weight gain index: noninfected group = 100. As to the method: (1) A coccidium infection and treatment test in the chicken
Male white Leghorn chickens, aged 2 weeks and with a mean body weight of 100 g, were treated with two representative examples of product compound (I) and Monensin, a control drug, at the various dose levels indicated in Table 1. Each compound and drug was suspended in a 1% aqueous solution of gum arabic and 2 ml per dose of the suspension was administered 3 times a day for 3 consecutive days. Birds in the untreated control groups were given 2 ml per dose of a 1% aqueous solution of gum arabic only in otherwise the same manner.
Immediately after the first dosing, birds in the infected groups were orally inoculated with 3.0×10^4 /bird of oocysts of Eimeria tenella. Body weights were taken at the first treatment and on the 3rd day after the entire course of treatment to investigate changes in body weight. Immediately after the second taking of body weights, the birds were terminated and autopsied to examine and score the cecal lesions.
Dosage: The total dose (mg) given to each bird during the test period.
Weight gain index: These indices were computed with the body weight gain
of birds in the noninfected group being taken as 100.
Three birds were assigned to each of the infected-non-treated groups, non-infected groups, the monencin group and the (Ia-A) groups, and the weight gain indices were computed from the mean body weight values for 3 birds. The (Ia-B) groups each consisted of a bird only.

The nature of the next series: Solubility. The class given is physicochemical.
A short description of another series: Stability. It is filed as physicochemical.
Where [1] appears, read: total dose 40 mg per bird, oral.
[2] abbreviates: 30 minutes in 50° C. solution at pH 2.
Where [3] appears, read: 30 minutes in 50° C. solution at pH 10.

For `COc1cc(C)cc2c(=O)oc3c(c12)C(=O)c1cccc(O)c1C3=O` [(Ia-A), 8-hydroxy-1-methoxy-3-methyl-7,12-dihydro-5H-benzo[d]naphtho[2,3-b]pyran-5,7,12-trione], the Lesion score is 2.0 in the series on Eimeria tenella (total dose 1.25 mg per bird); 2.0 in the series on Eimeria tenella (total dose 2.5 mg per bird); 0.3 in the series with Eimeria tenella (total dose 5 mg per bird); 0 in the series on Eimeria tenella (total dose 10 mg per bird); 0 in the series on Eimeria tenella (total dose 20 mg per bird); 0 in the series with Eimeria tenella (setting [1]). The Weight gain index in the series with Eimeria tenella (total dose 1.25 mg per bird) is listed as 108; in the series with Eimeria tenella (total dose 2.5 mg per bird) it was 92; in the series on Eimeria tenella (total dose 5 mg per bird) it was 97; with Eimeria tenella (total dose 10 mg per bird) it was 106; in the series on Eimeria tenella (total dose 20 mg per bird), 108; in the series with Eimeria tenella (total dose 40 mg per bird), 95. Besides, the Solubility entry in the series “Solubility” (acetone) was “Sparingly soluble”; in the series “Solubility” (chloroform), “Sparingly soluble”; in the series “Solubility” (dimethyl sulfoxide), “Partially soluble”; in the series “Solubility” (ethanol), “Sparingly soluble”; in the series “Solubility” (methanol) it was “Sparingly soluble”; in “Solubility” (tetrahydrofuran), “Partially soluble”. The Solubility entry in the series “Solubility” (water) is listed as “Insoluble”. Moreover, the Stability result in the series “Stability” (acid solutions) and in the series “Stability” (alkaline solutions) was “Instable” each time.
With `COc1cc(C)cc(C(=O)O)c1C1=CC(=O)c2c(O)cccc2C1=O` [(Ia-B), 2-(5-hydroxy-1,4-naphthoquinon-2-yl)-3-methoxy-5-methylbenzoic acid], the Lesion score is 3 with Eimeria tenella (total dose 2.5 mg per bird); 0 in the series with Eimeria tenella (total dose 5 mg per bird); 0 with Eimeria tenella (total dose 10 mg per bird); 0 with Eimeria tenella (total dose 20 mg per bird); 0 in the series with Eimeria tenella (setting [1]). In addition, the Weight gain index in the series on Eimeria tenella (total dose 2.5 mg per bird) was found to be 68; in the series on Eimeria tenella (total dose 5 mg per bird), 80; with Eimeria tenella (total dose 10 mg per bird), 95; with Eimeria tenella (total dose 20 mg per bird), 90; in the series on Eimeria tenella (total dose 40 mg per bird) it was 102. For the same compound, the Solubility entry in the series “Solubility” (acetone) is given as “Readily soluble”; in the series “Solubility” (benzene), “Insoluble”; in “Solubility” (chloroform) it was “Readily soluble”; in the series “Solubility” (ethanol) it was “Readily soluble”; in the series “Solubility” (ethyl acetate) it was “Readily soluble”; in “Solubility” (hexane), “Insoluble”. The Solubility result is given as “Readily soluble” in the series “Solubility” (methanol) and “Insoluble” in the series “Solubility” (water). Besides, the Stability result in the series “Stability” (setting [2]) and in “Stability” (setting [3]) was “Stable” each time.
For `COc1cc(C)cc(C(=O)O)c1C1=C(O)C(=O)c2c(O)cccc2C1=O` [(Ia-C), 2-(3,5-dihydroxy-1,4-naphthoquinon-2-yl)-3-methoxy-5-methylbenzoic acid], the Solubility result in “Solubility” (acetone) is given as “Partially soluble”; in “Solubility” (ethanol) it was “Readily soluble”; in “Solubility” (ether), “Insoluble”; in the series “Solubility” (ethyl acetate), “Partially soluble”; in the series “Solubility” (hexane), “Insoluble”; in “Solubility” (methanol), “Readily soluble”. Further, in the series “Solubility” (water), the Solubility result is “Insoluble”. Besides, the Stability entry in “Stability” (setting [2]) and in the series “Stability” (setting [3]) was “Stable” in each case.
Turning to `CC[C@@]1([C@@H]2O[C@@H]([C@H]3O[C@@](O)(CO)[C@H](C)C[C@@H]3C)C[C@@H]2C)CC[C@H]([C@]2(C)CC[C@]3(C[C@H](O)[C@@H](C)[C@@H]([C@@H](C)[C@@H](OC)[C@H](C)C(=O)O)O3)O2)O1` [Monensin, reference compound], the Lesion score with Eimeria tenella (total dose 1.25 mg per bird) is listed as 4.0; in the series on Eimeria tenella (total dose 2.5 mg per bird), 2.7; with Eimeria tenella (total dose 5 mg per bird), 2.3; in the series with Eimeria tenella (total dose 10 mg per bird), 0; in the series with Eimeria tenella (total dose 20 mg per bird), 0; in the series on Eimeria tenella (setting [1]), 0. The Weight gain index in the series with Eimeria tenella (total dose 1.25 mg per bird) is 99; in the series with Eimeria tenella (total dose 2.5 mg per bird), 92; with Eimeria tenella (total dose 5 mg per bird), 98; with Eimeria tenella (total dose 10 mg per bird), 68; in the series with Eimeria tenella (total dose 20 mg per bird), 51; with Eimeria tenella (total dose 40 mg per bird), 41.
